{"source": "patent US8003630B2", "about": "“Combinatorial therapies for the treatment of neoplasias using the opioid growth factor receptor” (The Penn State Research Foundation, priority 2004, dated 2011)", "key": {"SCC-1 cells": {"system": "SCC-1 cells", "experiment": "Necrosis, trypan blue positivity of SCC-1 cells", "type": "cell-based, human", "settings": "SCC-1 cultures or supernatants", "procedure": "Cell number was recorded either by using the MTS proliferation bioassay (Cell Titer 96 One Solution, Promega, Madison, Wis.) and measuring absorbency after 4 hr on a Biorad (Model 3550) plate reader at 490 nm with a 750 nm background absorbance screening, or by directly counting cells. The MTS assay utilized 10 wells/treatment. For manual counts, cells were harvested by trypsinization with 0.25% trypsin/0.53 mM EDTA, centrif uiged, and counted with a hemacytometer. Cell viability was determined by trypan blue staining. At least two aliquots per well, and 4-10 wells/treatment, were counted at each time for manual counting."}, "OGFr": {"target": "T1, OGFr (Homo sapiens, UniProt Q9NZT2)", "T1 construct": "Tumor tissues from some mice in each treatment group were removed at the time of death; from tissue; host or cells: SCC-1 squamous cell carcinoma xenograft tumors grown subcutaneously in nude mice", "T1 sequence (Q9NZT2 1-677)": "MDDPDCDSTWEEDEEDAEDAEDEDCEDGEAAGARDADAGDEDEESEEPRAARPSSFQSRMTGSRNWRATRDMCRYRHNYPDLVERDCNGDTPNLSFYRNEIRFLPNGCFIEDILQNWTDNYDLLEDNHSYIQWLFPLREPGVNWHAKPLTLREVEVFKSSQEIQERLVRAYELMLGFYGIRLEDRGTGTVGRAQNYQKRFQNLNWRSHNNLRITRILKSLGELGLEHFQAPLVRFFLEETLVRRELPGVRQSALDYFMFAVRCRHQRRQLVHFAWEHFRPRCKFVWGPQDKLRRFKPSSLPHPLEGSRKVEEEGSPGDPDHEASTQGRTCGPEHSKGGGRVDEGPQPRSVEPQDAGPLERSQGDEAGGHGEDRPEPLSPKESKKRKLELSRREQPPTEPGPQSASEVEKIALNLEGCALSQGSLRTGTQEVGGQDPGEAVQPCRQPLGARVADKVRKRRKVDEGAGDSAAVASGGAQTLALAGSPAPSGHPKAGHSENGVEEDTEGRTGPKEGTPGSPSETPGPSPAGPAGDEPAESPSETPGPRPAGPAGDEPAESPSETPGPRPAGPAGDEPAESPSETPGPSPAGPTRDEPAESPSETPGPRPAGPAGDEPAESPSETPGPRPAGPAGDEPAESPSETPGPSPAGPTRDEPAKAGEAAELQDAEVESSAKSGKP", "experiment": "Receptor binding analysis of OGFr in SCC-1 tumors from treated mice", "settings": "OGFr in SCC-1 tumors from mice of the treatment group; means ± SEM", "procedure": "Tumor tissues from some mice in each treatment group were removed at the time of death, washed free of blood and connective tissue, and immediately frozen in liquid nitrogen. Tissues were assayed following the procedures published previously [ 16]. Saturation binding isotherms were generated using GraphPad Prism software; binding affinity (Kd) and capacity (Bmax) values were provided by the computer software."}, "SCC-1 SCCHN cells": {"system": "SCC-1 SCCHN cells", "experiment": "SCC-1 SCCHN tumors in athymic nude mice (Examples 1c and 2)", "description": "Tumor dimensions were recorded every day beginning on the day that the tumors were considered measurable."}, "MiaPaCa-2 cells [1]": {"system": "MiaPaCa-2 cells", "experiment": "Gemcitabine and OGF cell cycle phase analysis by flow cytometry", "type": "cell-based, human", "settings": "2 to 24 hours after OGF exposure", "description": "To investigate the exact cell cycle phase where gemcitabine and/or OGF exerted their effects, flow cytometry was performed."}, "MiaPaCa-2 cells [2]": {"system": "MiaPaCa-2 cells", "experiment": "OGF/gemcitabine treatment in athymic nude mouse model (Example 5)", "type": "in vivo, athymic nude mice", "excerpt": "To examine the effectiveness of the combined OGF/gemcitabine treatments in vivo, an athymic nude mouse model was used."}, "MIA PaCa-2 cells [3]": {"system": "MIA PaCa-2 cells", "experiment": "Growth assays of MIA PaCa-2 cells (MTS assay or cell counting), Example 7", "type": "cell-based, human", "settings": "MIA PaCa-2; 96 hr (48 hr after reversal)", "procedure": "MIA PaCa-2 and PANC-1 human pancreatic adenocarcinoma cell lines were purchased from the American Type Culture Collection (Manasass, Va.). MIA PaCa-2 cells were derived from an undifferentiated epithelial carcinoma occurring in the body and tail of the pancreas in a person. The PANC-1 cells were derived from an undifferentiated carcinoma from the head of the pancreas in a person. MIA PaCa-2 and PANC-1 cells were grown in Dulbecco's MEM (modified) media; media was supplemented with 10% fetal calf serum, 1.2% sodium bicarbonate, and antibiotics (5,000 Units/ml penicillin, 5 mg/ml streptomycin, 10 mg/ml neomycin), and the cells were maintained in a humidified atmosphere of 7% CO2/93% air at 37° C.\nMIA PaCa-2 cells were seeded at equivalent amounts into either 75 cm^2 flasks, 6-well plates, or 96-well plates (Falcon) and counted 24 hr later to determine plating efficiency. Growth assays for PANC-1 cells were conducted in 6-well plates (Falcon). Compounds or sterile water were added beginning 24 hr after seeding (=0 hr), and both media and compounds were replaced daily. All drugs were prepared in sterile water and dilutions represent final concentrations of the compounds.\nCell number was recorded either by using a mitogenic bioassay, the MTS assay (Cell Titer 96 One Solution, Promega, Madison, Wis.), and measuring absorbency after 4 hr on a Biorad (Model 3550) plate reader at 490 nm, or by counting cells. For manual counts, cells were harvested with a solution of 0.25% trypsin/0.53 mM EDTA, centrif uiged, and counted with a hemacytometer. Cell viability was determined by trypan blue staining. At least two aliquots per flask or 4-10 wells/treatment were counted at each time."}, "MIA PaCa-2 cells [4]": {"system": "MIA PaCa-2 cells", "experiment": "MIA PaCa-2 xenograft in nude mice, tumor appearance, growth and termination day measurements (Example 7)", "type": "in vivo, BALB/c-nu/nu nude mice", "source_text": "Male 4 week old BALB/c-nu/nu nude mice purchased from Harlan Laboratories (Indianapolis, Ind.) were housed in pathogen-free isolators in the Department of Comparative Medicine at the Penn State University College of Medicine. All procedures were approved by the IACUC committee of the Penn State University College of Medicine and conformed to the guidelines established by NIH. Mice were allowed 48 hr to acclimate prior to beginning experimentation.\nMIA PaCa-2 cells (10^6 cells/mouse) were inoculated into nude mice by subcutaneous injection into the right scapular region; mice were not anesthetized for this procedure.\nAll drugs were dissolved in saline and prepared weekly. Injections were given within 1 hr of tumor cell inoculation.\nMice were weighed weekly throughout the experiment, and observed daily for the presence of tumors. The latency for a visible tumor to appear, and the time until tumors were measurable (i.e., 62.5 mm^3) were recorded. Tumors were measured using calipers every day after tumor appearance. Tumor volume was calculated using the formula w^2×1×π/6, where the length is the longest dimension, and width is the dimension perpendicular to length.\nAccording to IACUC guidelines, mice were terminated when tumors became ulcerated, or tumors grew to 2 cm in diameter. Forty-five days following tumor cell inoculation, all mice were euthanized by an overdose of sodium pentobarbital (100 mg/kg) and killed by cervical dislocation; mice (with tumors) were weighed. Tumors and spleens were removed and weighed, and the lymph nodes, liver, and spleen examined for metastases."}}, "note": "Marks after values point to notes of the source that are not given here."}
{"compound": "CC(=O)O[C@H]1C(=O)[C@@]2(C)[C@H]([C@H](OC(=O)c3ccccc3)[C@]3(O)C[C@H](OC(=O)[C@H](O)[C@@H](NC(=O)c4ccccc4)c4ccccc4)C(C)=C1C3(C)C)[C@]1(OC(C)=O)CO[C@@H]1C[C@@H]2O", "note": "[paclitaxel]", "values": [{"measurement": "necrosis, number of trypan blue positive cells versus control", "setting": "SCC-1 cells", "value": "No differences in necrosis"}, {"measurement": "Bmax, fmol/mg protein", "setting": "OGFr", "value": "27.8 ± 1.6", "unit": "fmol/mg protein"}, {"measurement": "average life span", "setting": "SCC-1 SCCHN cells; 50-day study", "value": "34.3 ± 3.1", "unit": "days"}, {"measurement": "mice with tumors", "setting": "SCC-1 SCCHN cells; day 13 after tumor cell inoculation", "value": 66, "unit": "%"}, {"measurement": "observations on organs after premature death", "setting": "SCC-1 SCCHN cells; histological analysis", "value": "distended abdomens with associated megacolon"}, {"measurement": "mice that had died by day 40", "setting": "SCC-1 SCCHN cells; nude mice with SCC-1 tumors", "value": 75, "unit": "%"}, {"measurement": "body weight less than controls", "setting": "SCC-1 SCCHN cells; nude mice with SCC-1 tumors, day 20", "value": 11, "unit": "%"}, {"measurement": "body weight less than controls, OGF and paclitaxel/OGF treated mice", "setting": "SCC-1 SCCHN cells; nude mice with SCC-1 tumors, day 50", "value": 28, "unit": "%"}]}
{"compound": "[Met^5]-enkephalin [OGF]", "values": [{"measurement": "increase of cells in the G0/G1 phase of the cell cycle", "setting": "MiaPaCa-2 cells [1]", "value": "no significant increases into the G0/G1 phase"}, {"measurement": "mice with tumors", "setting": "MiaPaCa-2 cells [2]; day 16 after tumor cell inoculation", "value": "all mice"}, {"measurement": "tumors smaller than control mice, reduction", "setting": "MiaPaCa-2 cells [2]; from the 6th timepoint (12th day of measurable tumor)", "value": "29.9-40.7%"}, {"measurement": "difference in cell number between reversal group and group continuing drug exposure", "setting": "MIA PaCa-2 cells [3]", "value": 16, "unit": "%"}, {"measurement": "day from which tumor volume differed from controls", "setting": "MIA PaCa-2 cells [4]; at least p<0.05", "value": 14, "unit": "days"}, {"measurement": "mice with measurable tumors", "setting": "MIA PaCa-2 cells [4]; day 10", "value": 60, "unit": "%"}, {"measurement": "tumor volumes decreased from control values", "setting": "MIA PaCa-2 cells [4]; day 45", "value": 46, "unit": "%"}, {"measurement": "Tumor Volume, mm^3", "setting": "MIA PaCa-2 cells [4]; day 45, means ± SEM", "value": "4849 ± 490*** mm^3"}, {"measurement": "Tumor Weight", "setting": "MIA PaCa-2 cells [4]; day 45, means ± SEM", "value": "3.5 ± 0.5", "unit": "g"}, {"measurement": "Latency to measurable tumor", "setting": "MIA PaCa-2 cells [4]; means ± SEM", "value": "14.2 ± 0.8", "unit": "days"}, {"measurement": "Latency to visible tumor", "setting": "MIA PaCa-2 cells [4]; means ± SEM", "value": "10.7 ± 0.8", "unit": "days"}, {"measurement": "Tumor Incidence, day 16", "setting": "MIA PaCa-2 cells [4]; mice with tumor/N", "value": "10/10"}, {"measurement": "Tumor Incidence, day 10", "setting": "MIA PaCa-2 cells [4]; mice with tumor/N, OGF 10 mg/kg daily and/or gemcitabine 120 mg/kg every 3 days i.p.", "value": "6/10"}, {"measurement": "weights of tumors decreased from control levels", "setting": "MIA PaCa-2 cells [4]; termination day (day 45)", "value": 36, "unit": "%"}, {"measurement": "Bmax, fmol/mg protein", "setting": "OGFr", "value": "27.2 ± 2.2", "unit": "fmol/mg protein"}, {"measurement": "latency time for measurable (62.5 mm^3) tumors", "setting": "SCC-1 SCCHN cells; after tumor cell inoculation", "value": "≤ 17", "unit": "days"}, {"measurement": "latency to a visible tumor", "setting": "SCC-1 SCCHN cells; after tumor cell inoculation", "value": "≤ 11", "unit": "days"}, {"measurement": "reduction of tumor size versus control mice", "setting": "SCC-1 SCCHN cells; second timepoint (4th day of measurable tumors)", "value": 26, "unit": "%"}, {"measurement": "delay in visible tumor development", "setting": "SCC-1 SCCHN cells; versus control mice", "value": "~4", "unit": "days"}]}
